In patent publication US12139471B2, “NLRP3 inflammasome inhibitors” (Novartis AG, priority 2019, dated 2024) one finds IC50 data, which are given here for 10 molecules.

Some results are limits rather than exact numbers.

For the first assay, the target named is T1, NLRP3 inflammasome (Homo sapiens, UniProt Q96P20).
T1 construct: host or cells: THP-1 cells, PMA-differentiated
T1 sequence (Q96P20 whole entry): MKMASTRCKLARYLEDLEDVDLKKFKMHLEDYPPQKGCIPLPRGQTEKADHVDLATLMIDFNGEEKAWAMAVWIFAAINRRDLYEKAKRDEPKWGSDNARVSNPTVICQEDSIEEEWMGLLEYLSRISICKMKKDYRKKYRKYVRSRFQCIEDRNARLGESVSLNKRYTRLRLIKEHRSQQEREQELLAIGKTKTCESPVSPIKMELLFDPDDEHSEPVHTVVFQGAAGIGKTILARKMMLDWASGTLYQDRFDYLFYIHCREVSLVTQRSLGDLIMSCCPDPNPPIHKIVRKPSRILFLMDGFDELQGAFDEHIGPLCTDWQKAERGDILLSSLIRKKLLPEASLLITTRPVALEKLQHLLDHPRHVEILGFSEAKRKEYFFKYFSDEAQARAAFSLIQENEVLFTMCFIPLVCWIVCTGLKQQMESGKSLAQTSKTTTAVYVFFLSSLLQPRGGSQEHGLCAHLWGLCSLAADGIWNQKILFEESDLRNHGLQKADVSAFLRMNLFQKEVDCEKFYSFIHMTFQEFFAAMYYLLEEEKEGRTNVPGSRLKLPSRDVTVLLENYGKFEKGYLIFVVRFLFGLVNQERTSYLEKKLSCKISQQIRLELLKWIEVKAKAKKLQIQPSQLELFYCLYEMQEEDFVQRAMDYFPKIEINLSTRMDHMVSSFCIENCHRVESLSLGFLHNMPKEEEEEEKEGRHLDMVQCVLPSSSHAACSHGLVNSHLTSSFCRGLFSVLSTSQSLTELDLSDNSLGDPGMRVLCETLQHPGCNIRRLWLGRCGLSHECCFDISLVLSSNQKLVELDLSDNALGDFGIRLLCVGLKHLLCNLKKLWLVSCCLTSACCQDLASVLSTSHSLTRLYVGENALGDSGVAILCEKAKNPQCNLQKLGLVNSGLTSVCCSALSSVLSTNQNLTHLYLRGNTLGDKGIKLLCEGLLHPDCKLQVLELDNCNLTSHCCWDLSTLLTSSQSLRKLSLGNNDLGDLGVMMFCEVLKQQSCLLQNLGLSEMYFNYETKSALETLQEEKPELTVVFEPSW
The experiment in a line: IL-1β secretion assay (nigericin-activated, PMA-differentiated THP-1 cells, HTRF). The conditions noted are these: IL-1β IC50, PMA-differentiated THP-1 cells; compound 1 hour, then 15 μM nigericin, 3 hours; IL-1β by HTRF. It is filed as cell-based. The method, then:
10 μL supernatant was removed, and IL-1β levels were monitored using an HTRF assay (CisBio, #62IL1PEC) according to manufacturers' instructions. Viability and pyroptosis was monitored with the addition of PrestoBlue cell viability reagent (Life Technologies, #A13261) directly to the cell culture plate.
IC50 values were calculated from the plot of percentage of inhibition versus the inhibitor concentration by a logistics fit according to: y=A2+(A1−A2)/(1+(x/IC50)^p) where y is the %-inhibition at the inhibitor concentration, x. A1 is the lowest inhibition value, i.e. 0%, and A2 the maximum inhibition value, i.e. 100%. The exponent, p, is the Hill coefficient. The curve fitting was conducted with an internally developed software suite.
NLRP3-dependent IL-1β secretion was stimulated in PMA-differentiated THP-1 cells by the addition of nigericin, and cytokines were measured in the […] after 3 hours. As discussed above, activation of the NLRP3 inflammasome requires both an NF-kB-dependent priming step and the addition of a NLRP3 activator.
Usually IC50 stands for the concentration that inhibits the measured activity by half. For `Cc1cc(C(F)(F)F)cc(O)c1-c1ccc(NC2CCC3CCC2N3C)nn1` (single isomer, unassigned) [Ex 85b], the IC50 was 1.3 nM.

The same assay, now with this note: PMA-differentiated THP-1 cells; compound 1 hour, then 15 μM nigericin, 3 hours; IL-1β by HTRF; read-out: IL-1β IC50.
As to “(3R)-3-((6-(2-Hydroxy-6-methyl-4-(trifluoromethyl)phenyl)-4-methylpyridazin-3-ylamino)-1-methylpiperidine 1-oxide TFA-salt [Ex 104]”, the IC50 turned out to be 59 nM.
As for `Cc1cc(C(F)(F)F)cc(O)c1-c1ccc(NC[C@](C)(O)CO)nn1` (single isomer, unassigned) [Ex 88a], the IC50 was 62.3 nM.
For `Cc1cc(C(F)(F)F)cc(O)c1-c1ccc(NC2CCC3CCC2N3CCO)nn1` (single isomer, unassigned) [Ex 86a], the IC50 was determined as 175 nM.
Same read-out and setting: to `Cc1cc(C(F)(F)F)cc(O)c1-c1ccc(NC[C@@H]2CCCCN2)nn1` [Ex 21, (S)-3-Methyl-2-(6-((piperidin-2-ylmethyl)amino)pyridazin-3-yl)-5-(trifluoromethyl)phenol] belongs 48.4 nM; to `Cc1cc(C(F)(F)F)cc(O)c1-c1ccc(NC[C@H]2CCCCN2)nn1` [Ex 20, (R)-3-Methyl-2-(6-((piperidin-2-ylmethyl)amino)pyridazin-3-yl)-5-(trifluoromethyl)phenol], 82.3 nM.
On the same count and under the same terms, under `Cc1cc(N[C@H]2C[C@@](C)(O)C2)nnc1-c1ccc(OC(F)(F)F)cc1O` [Ex 81, 2-(6-(((cis)-3-Hydroxy-3-methylcyclobutyl)amino)-4-methylpyridazin-3-yl)-5-(trifluoromethoxy)phenol] stands 130 nM; under `Cc1cc(C)c(-c2ccc(NCCc3ccc(S(N)(=O)=O)cc3)nn2)c(O)c1` [Ex 103, 4-(2-((6-(2-Hydroxy-4,6-dimethylphenyl)pyridazin-3-yl)amino)ethyl)benzenesulfonamide], 136 nM; under `Cc1cc(C(F)(F)F)cc(O)c1-c1ccc(NCC2(O)CCCC2)nn1` [Ex 98, 2-(6-(((1-Hydroxycyclopentyl)methyl)amino)pyridazin-3-yl)-3-methyl-5-(trifluoromethyl)phenol], 115 nM.
For the molecule `Oc1cc(C(F)(F)F)cc(Cl)c1-c1ccc(N[C@H]2C[C@@H](O)C2)nn1` [Ex 31, 3-Chloro-2-(6-((cis-3-hydroxycyclobutyl)amino)pyridazin-3-yl)-5-(trifluoromethyl)phenol], the IC50 was found to be 167 nM.

The next assay has as its system NF-kB-dependent TNF-α secretion. The experiment in a line: TNF-α secretion assay (counter screen, THP-1 cells, HTRF). In kind it is cell-based. Particulars: undifferentiated THP-1 cells, Pam3CSK4-stimulated, 3 hours, TNF-α by HTRF.
Experimental: Monocytic THP-1 cells were maintained according to providers' instructions in RPMI media as described above. […] Experimental compounds were prepared and added as described above. TNF-α secretion was triggered by the addition of either 1 μg/mL LPS (Sigma, #L4391) or 100 ng/mL Pam3CSK4 (Invivogen, #tlri-pms) depending on the experiment, and cells were incubated for 3 hours. 10 μL supernatant was removed, and TNF-α levels were monitored using an HTRF assay (CisBio, #62TNFPEC) according to manufacturers' instructions. Viability was monitored as described above.
Consider “(3R)-3-((6-(2-Hydroxy-6-methyl-4-(trifluoromethyl)phenyl)-4-methylpyridazin-3-ylamino)-1-methylpiperidine 1-oxide TFA-salt [Ex 104]”, for which the IC50 is greater than 100000 nM.
